Measured values as given in PubChem BioAssay (NCI).
Several values for one entry are separate records, joined by “and”; a condition that tells them apart may be missing. Equal values may be shown once.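 Test compounds were applied to cells in 96-well plates for 48 hours at 5 doses. GI50: concentration for 50% inhibition of growth. Definition used: TGI = concentration required for complete inhibition of growth.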

Legend:
Assay in all cases: growth of human tumour cells (NCI), 48 h
COLO 205 colon = tested on: COLO 205 colon
K-562 leukemia = tested on: K-562 leukemia
NCI/ADR-RES ovarian = tested on: NCI/ADR-RES ovarian
OVCAR-3 ovarian = tested on: OVCAR-3 ovarian
OVCAR-4 ovarian = tested on: OVCAR-4 ovarian
SNB-75 CNS = tested on: SNB-75 CNS

Compound	TGI (COLO 205 colon)	TGI (K-562 leukemia)	TGI (NCI/ADR-RES ovarian)	TGI (OVCAR-3 ovarian)	TGI (OVCAR-4 ovarian)	TGI (SNB-75 CNS)	GI50 (OVCAR-3 ovarian)
COC(=O)/C(C#N)=C(/NCc1ccccc1)Nc1ccccc1	> 100 µM	> 100 µM	> 100 µM	> 100 µM	> 100 µM	> 100 µM	–
CC[C@H]1C=CCC[C@@]2(C[C@@H]3CC[C@H]4[C@@H](C(=O)OCCCCCCCCCCCCCCCC(=O)N(CCCNC(C)=O)C[C@H](CCNC(C)=O)OC(C)=O)[C@@]5(CCC[C@@H](C)O5)NC(=[N+]34)N2)O1	2.67 µM	2.41 µM	–	2.03 µM	3.16 µM	–	–
C=CCN1C(=O)/C(=C/c2ccc(OC)cc2)N=C1SC1OC(COC(C)=O)C(OC(C)=O)C(OC(C)=O)C1OC(C)=O (stereo not drawn)	> 100 µM	> 100 µM	> 100 µM	30 µM and > 100 µM	15 µM and > 100 µM	40.7 µM and > 100 µM	13.5 µM and 58.2 µM
N#CCCN(CCCN(C(=O)Nc1ccc(NC(=O)N(CCCN(CCC#N)C(N)=O)c2ccccc2)cc1)c1ccccc1)C(N)=O	> 100 µM	> 100 µM	> 100 µM	> 100 µM	> 100 µM	> 100 µM	–
Cc1ccc2nc(-c3ccc(-c4nc5ccc(C)cc5o4)c(O)c3)oc2c1	> 100 µM	> 100 µM	> 100 µM	–	–	> 100 µM	–
Cn1nc(S(N)(=O)=O)s/c1=N/S(=O)(=O)c1ccc(N)cc1	> 100 µM	–	> 100 µM	> 100 µM	> 100 µM	> 100 µM	–
CC(C(=O)O)C1Nc2ccccc2NC1=O (stereo not drawn)	> 100 µM	> 100 µM	> 100 µM	> 100 µM	> 100 µM	> 100 µM	–
CCOC(=O)CNC(=O)CNC(=O)CNC(=O)CNNc1c(OCc2ccccc2)c(=O)c1=O	> 100 µM	> 100 µM	> 100 µM	> 100 µM	> 100 µM	> 100 µM	–
Oc1ccccc1-c1n[nH]c(-c2ccccc2O)n1	> 85.8 µM	> 100 µM	> 100 µM	–	> 100 µM	> 100 µM	–
C=C1C(=O)OC2/C=C(\C)CC/C=C(\C)CC(OC(=O)/C(=C/CO)CO)[C@@H]12 (stereo partly drawn)	5.4 µM	9.21 µM	59.6 µM	18.4 µM	27.5 µM	29.8 µM	–
Brc1ccc(N=Nc2ccc3ccccc3n2)cc1	> 100 µM	–	> 100 µM	–	–	40.6 µM	–
CC(C)(C)OC(=O)NCC(=O)N(CCc1ccc(Cl)c(Cl)c1)CCN1CCCC1	30 µM	25.1 µM	36.7 µM	32.2 µM	54.9 µM	37.2 µM	–
O=C1CC2(CCNCC2)C(=O)N1N1CCCCC1	> 100 µM	> 100 µM	> 100 µM	> 100 µM	> 100 µM	> 100 µM	–
[O-]/[N+](=N/c1ncc(-c2ccccc2)cn1)c1ncc(-c2ccccc2)cn1	> 100 µM	> 100 µM	> 100 µM	> 100 µM	> 100 µM	> 100 µM	–
COc1cccc(N2C(=O)C3c4[nH]c5ccc(C)cc5c4C4CCC(C)CC4C3C2=O)c1 (stereo not drawn)	> 100 µM	> 100 µM	> 100 µM	> 100 µM	–	–	–
O=C1/C(=C/c2ccc(OC(=O)c3ccc(Cl)cc3)cc2)CCC/C1=C\c1ccc(OC(=O)c2ccc(Cl)cc2)cc1	> 100 µM	–	> 100 µM	> 100 µM	> 100 µM	60.8 µM	–
Cc1cc(C)nc(NS(=O)(=O)c2ccc(Nc3nnc(/C=C/c4c(O)ccc5ccccc45)c(=O)n3N)cc2)n1	–	> 100 µM	58.3 µM	56 µM	85.2 µM	55.9 µM	–
CN(C)c1cccc(/C=C(\C#N)c2ccccc2)c1	5.41 µM	> 14.4 µM	3.5 µM	3.29 µM	98 µM	5.05 µM	–
CC(C)N(C(=O)C12C3(C(=O)C(C)(C)C)C4C5(C#N)C3C1(C(=O)C(C)(C)C)C5C42C(=O)C(C)(C)C)C(C)C (stereo not drawn)	> 100 µM	> 100 µM	> 100 µM	> 100 µM	> 100 µM	91 µM	–
O=C1Nc2ccccc2/C1=N/N1C(=O)/C(=C/c2ccccc2S)N=C1c1ccccc1	> 100 µM	> 100 µM	> 100 µM	> 100 µM	> 100 µM	> 100 µM	–
CC1(C)CC2C(/C1=N/O)C1(C)CCCC2(C)C1O (stereo not drawn)	> 100 µM	> 100 µM	> 100 µM	> 100 µM	> 100 µM	> 100 µM	–

Compound	TGI (COLO 205 colon)	TGI (K-562 leukemia)	TGI (NCI/ADR-RES ovarian)	TGI (OVCAR-3 ovarian)	TGI (OVCAR-4 ovarian)	TGI (SNB-75 CNS)	GI50 (OVCAR-3 ovarian)
N#Cc1nc(-c2ccc(-c3nc(C#N)c(N)o3)cc2)oc1N	> 10 µM	> 10 µM	> 10 µM	–	> 10 µM	> 10 µM	–
COc1ccc2c(c1)C1c3ccccc3CCN1CCC2 (stereo not drawn)	> 100 µM	> 100 µM	> 100 µM	> 100 µM	> 100 µM	64.2 µM	–
CC(C)(C)Cc1cc(O)ccc1O	> 100 µM	> 100 µM	94.5 µM	> 100 µM	> 100 µM	> 100 µM	–
Cc1ccc(S(=O)(=O)OI(O)CC(F)(F)F)cc1	> 100 µM	> 100 µM	> 100 µM	> 100 µM	> 100 µM	> 100 µM	–
CC(=O)c1sc2n(C)c(=O)c3ccccc3[n+]2c1C	> 100 µM	> 100 µM	> 100 µM	> 100 µM	> 100 µM	–	–
Nc1ncnc2c1ncn2[C@@H]1C[C@H](NO)[C@@H](O)[C@H]1O	> 100 µM	> 100 µM	> 100 µM	> 100 µM	> 100 µM	> 100 µM	–
Cc1ccc(S(=O)(=O)NC(=O)NCC(N)=O)cc1	> 100 µM	> 100 µM	> 100 µM	–	> 100 µM	> 100 µM	–
N#CCN1CCN(CC#N)CCN(CC#N)CCN(CC#N)CC1	> 100 µM	> 100 µM	> 100 µM	> 100 µM	> 100 µM	> 100 µM	–
C=CC[C@@]12CCC(=O)C=C1CCCC2=O	> 100 µM	> 100 µM	> 100 µM	> 100 µM	> 100 µM	–	–
O=C(/C=C/c1ccccc1Br)c1ccccc1	28.6 µM	5.14 µM	17.7 µM	22.1 µM	6.03 µM	25.4 µM	–
Cc1ncc([N+](=O)[O-])n1CCNC(=O)Cn1ccnc1[N+](=O)[O-]	> 100 µM	> 100 µM	> 100 µM	> 100 µM	–	> 100 µM	–
CC(CC(C)[C@H]1CCC2[C@H]3C(CC(=O)[C@@]21C)[C@@]1(C)CCC(O)C[C@H]1C[C@@H]3O)C(=O)O (stereo partly drawn)	> 100 µM	> 100 µM	> 100 µM	–	> 100 µM	> 100 µM	–
COc1cc(/C=C2\C(=O)N(c3ccc(NC(C)=O)cc3)C(c3ccccc3)S2(=O)=O)cc(OC)c1OC (stereo not drawn)	> 100 µM	> 100 µM	> 100 µM	> 100 µM	> 100 µM	> 100 µM	–
COC(=O)/C=C/c1ccc2c(c1)[C@H](C(=O)OC)[C@@H](c1ccc(O)cc1)O2	89.4 µM	> 100 µM	> 100 µM	28.2 µM	> 100 µM	–	–
COc1ccc2cc(/C=N\NC(=O)Nc3ccc([N+](=O)[O-])cc3)ccc2c1	17.9 µM	> 31.6 µM	20.1 µM	44.1 µM	15.9 µM	23.1 µM	–
CN1C(=O)C(C#N)C2C[C@@]1(C)Oc1ccccc12 (stereo partly drawn)	> 100 µM	> 100 µM	> 100 µM	> 100 µM	> 100 µM	> 100 µM	–
CCN(CC)c1ccc2cc(-c3csc(C)n3)c(=O)oc2c1	> 100 µM	> 100 µM	–	–	> 100 µM	9.42 µM	–
CC(=O)c1c2c(cc3c1CC1(C3)Cc3cc4c(c(C(C)=O)c3C1)CCCC4)CCCC2	> 100 µM	> 100 µM	> 100 µM	> 100 µM	> 100 µM	–	–
CNC(=O)OCc1nc(N=[N+]=[N-])n(C)c1COC(=O)NC	> 100 µM	> 100 µM	> 100 µM	> 100 µM	> 100 µM	> 100 µM	–
CC(C)=CC[C@H]1C[C@@]2(CC=C(C)C)C(=O)/C(=C(/O)c3ccccc3)C(=O)[C@](CC=C(C)C)(C2=O)C1(C)C	–	50.4 µM	42.2 µM	–	26.4 µM	33.4 µM	–
Cc1c(-c2ccccc2)c(C#N)c2nnn(C)c(=O)n12	> 100 µM	> 100 µM	> 100 µM	> 100 µM	> 100 µM	> 100 µM	–

Compound	TGI (COLO 205 colon)	TGI (K-562 leukemia)	TGI (NCI/ADR-RES ovarian)	TGI (OVCAR-3 ovarian)	TGI (OVCAR-4 ovarian)	TGI (SNB-75 CNS)	GI50 (OVCAR-3 ovarian)
COc1cc(OC)c2nc(C)c3c(c2c1)OCC3	> 100 µM	> 100 µM	> 100 µM	> 100 µM	> 100 µM	> 100 µM	–
O=C(/N=C1/OC(CN2CCOCC2)CN1C(=O)Nc1ccccc1)Nc1ccccc1 (stereo not drawn)	> 100 µM	> 100 µM	> 100 µM	–	> 100 µM	> 100 µM	–
CC1(C)N([O-])[N+](=O)C1(Br)c1ccccc1 (stereo not drawn)	> 100 µM	> 100 µM	> 100 µM	> 100 µM	> 100 µM	> 100 µM	–
CC1CN=C(NS(=O)(=O)c2cc(C(=O)Nc3ccccc3)c(Cl)cc2S)NN1 (stereo not drawn)	> 100 µM	> 100 µM	> 100 µM	> 100 µM	> 100 µM	–	–
COC(=O)/C=C1/OC(c2ccc(C)cc2C)=CC1=O	30.2 µM	10.8 µM	42.3 µM	60.1 µM	–	29.4 µM	–
Cc1ccc(/C=C2\CCCCCC2=O)cc1	> 100 µM	> 100 µM	–	> 100 µM	> 100 µM	> 100 µM	–
Cc1ccc(C2=Nn3c(nc4sc5c(c4c3=O)CCCC5)SC2)cc1	> 100 µM	> 100 µM	> 100 µM	> 100 µM	> 100 µM	> 100 µM	–
CCC1(CC)C(=O)NN(C(=O)c2ccc(Cl)cc2)C1=O	> 100 µM	> 100 µM	> 100 µM	> 100 µM	> 100 µM	> 100 µM	–
N/N=C(/CC(O)(C(F)(F)F)C(F)(F)F)c1ccccc1	> 10 µM	> 10 µM	> 10 µM	> 10 µM	> 10 µM	> 10 µM	–
C=C(C)CCN(C(=O)OC(C)(C)C)c1cc(C(C)C)co1	> 100 µM	> 100 µM	> 100 µM	> 100 µM	> 100 µM	–	–
CC(C)(C)OC(=O)NC(Cc1ccc(OCc2ccccc2)cn1)C(=O)O (stereo not drawn)	> 100 µM	> 100 µM	> 100 µM	> 100 µM	> 100 µM	–	–
COc1cc(/C=C2\CC(C)C/C(=C\c3ccc(O)c(OC)c3)C2=O)ccc1O (stereo not drawn)	24.7 µM	> 73.5 µM	> 62.2 µM	6.47 µM	8.96 µM	15 µM	–
COC1=CC(=O)c2c(n[nH]c2CCNC(=O)OCc2ccccc2)C1=O	33.9 µM	44.9 µM	> 100 µM	32.2 µM	–	–	–
O=c1cc(-c2ccc3ccccc3c2)[nH]c2ncccc12	> 100 µM	12 µM	> 100 µM	> 100 µM	> 100 µM	62.6 µM	8.25 µM
O=c1[nH]c2cc3[nH]c(=O)c(=O)[nH]c3cc2[nH]c1=O	> 100 µM	> 100 µM	> 100 µM	> 100 µM	–	> 100 µM	–
CC(C)(C)OC(=O)NC(Cc1ccc(OCc2ccccc2)cn1)C(N)=O (stereo not drawn)	> 100 µM	> 100 µM	> 100 µM	> 100 µM	> 100 µM	> 100 µM	–
COc1ccc(C(c2cc(OC)c(OC)c(OC)c2)N2C(=O)CCC2C(=O)O)cc1 (stereo not drawn)	> 100 µM	> 100 µM	> 100 µM	> 100 µM	> 100 µM	> 100 µM	–
COC(=O)C1=C(C(=O)OC)C(OO)(c2ccccc2)OC1=O (stereo not drawn)	> 100 µM	> 100 µM	> 100 µM	> 100 µM	> 100 µM	> 100 µM	–
COC(=O)C1Cc2c([nH]c3ccccc23)-c2[nH]c3ccccc3c2CC(NC(C)=O)C(=O)NCC(=O)NCC(=O)N1 (stereo not drawn)	> 100 µM	> 100 µM	> 100 µM	> 100 µM	–	> 100 µM	–
COc1ccc(OC2OC(CO)C(O)C(O)C2O)cc1 (stereo not drawn)	> 100 µM	> 100 µM	> 100 µM	> 100 µM	–	> 100 µM	–
Oc1ccc2ccccc2c1NCn1nc(CCCCCCCCc2nn(CNc3c(O)ccc4ccccc34)c(=S)o2)oc1=S	> 100 µM	> 100 µM	> 100 µM	–	> 100 µM	> 100 µM	–
